Experimental data taken from US9555014B2, “Therapeutic regimens” (Radius Health, Inc., priority 2010, dated 2017).
Where a name gives a salt, the structure may show the parent alone. Read-outs that look alike come from different tables or passages of the source.

How the values were obtained:
[1] = test system: endometrium; test: Preclinical rat models measuring estrogenic agonist effects on the endometrium; type: in vivo
Description: The results of a phase 2a clinical study assessing the effects of the selective estrogen receptor modulator (SERM) (R)-6-(2-(ethyl(4-(2-(ethylamino)ethyl)benzyl)amino)-4-methoxyphenyl)-5,6,7,8-tetrahydronaphthalen-2-ol on women suffering from hot flushes are reported herein.

[2] = Phase 2a study: trough and peak plasma drug levels; type: in vivo, human (postmenopausal women); conditions: for concentration at 8 day / concentration at 15 day / concentration at 29 day: female, human, plasma; for concentration at 29 day: Day 29, ITT
Description: This is a randomized, placebo-controlled, double-blind, parallel-group, Phase 2, multi-center, dose-finding study to evaluate the effects of (R)-6-(2-(ethyl(4-(2-(ethylamino)ethyl)benzyl)amino)-4-methoxyphenyl)-5,6,7,8-tetrahydronaphthalen-2-ol dihydrochloride in the treatment of vasomotor symptoms in postmenopausal women.
A total of 100 eligible patients will be randomized to receive one of 5 blinded treatment regimens. (R)-6-(2-(ethyl(4-(2-(ethylamino)ethyl)benzyl)amino)-4-methoxyphenyl)-5,6,7,8-tetrahydronaphthalen-2-ol dihydrochloride at doses 0, 10, 25, 50 or 100 mg will be dosed for 28-days.
(R)-6-(2-(ethyl(4-(2-(ethylamino)ethyl)benzyl)amino)-4-methoxyphenyl)-5,6,7,8-tetrahydronaphthalen-2-ol dihydrochloride was provided by sponsor in capsule form for oral administration. All doses (0, 10, 25, 50 and 100 mg) were provided as identical presentations. Each patient was provided with 2 containers of 28-capsules each at the start of treatment and took one capsule from each container every day for 28-days. Placebo contained the same excipients as active medication, but without (R)-6-(2-(ethyl(4-(2-(ethylamino)ethyl)benzyl)amino)-4-methoxyphenyl)-5,6,7,8-tetrahydronaphthalen-2-ol dihydrochloride. The patients were instructed to take the capsules orally in the fasted state (morning).
All efficacy endpoints were to be analyzed for the ITT and PP populations, with the exception of the drug levels (analyzed for the ITT population only). Safety endpoints were to be analyzed for the Safety/ITT population.
Values for ranges of steady state trough levels and steady state Cmax can be derived from Tables 4 and 5. Steady state values are the values listed for days 8 and 15. The ranges were derived from the mean number listed in the table plus or minus one standard deviation (the number in parenthesis after each mean value). For example a steady state trough level ranging from 0.11 ng/mL to 0.79 ng/mL is derived from Table 4 by taking the trough level for 10 mg, 0.45 ng/mL, adding 0.34 to get the upper value of 0.79 and subtracting 0.34 to get the lover value of 0.11. Other ranges for steady state trough levels and ranges for Cmax can be similarly derived from the data in Tables 4 and 5.

CCNCCc1ccc(CN(CC)c2cc(OC)ccc2[C@@H]2CCc3cc(O)ccc3C2)cc1 [drug, (R)-6-(2-(ethyl(4-(2-(ethylamino)ethyl)benzyl)amino)-4-methoxyphenyl)-5,6,7,8-tetrahydronaphthalen-2-ol dihydrochloride]
estrogen agonist stimulation effects on the endometrium [1]: negligible estrogen agonist stimulation effects | Peak Level of drug ([2]; 10 mg daily PO, Day 1, ITT, mean (SD)): 0.56 (0.34) ng/mL | Peak Level of drug ([2]; 10 mg daily PO, Day 8, ITT, mean (SD)): 0.92 (0.52) ng/mL | Peak Level of drug ([2]; 10 mg daily PO, Day 15, ITT, mean (SD)): 0.92 (0.69) ng/mL | Peak Level of drug ([2]; 25 mg daily PO, Day 1, ITT, mean (SD)): 1.41 (0.63) ng/mL | Peak Level of drug ([2]; 25 mg daily PO, Day 8, ITT, mean (SD)): 2.53 (0.74) ng/mL | Peak Level of drug ([2]; 25 mg daily PO, Day 15, ITT, mean (SD)): 2.97 (1.09) ng/mL | Peak Level of drug ([2]; 50 mg daily PO, Day 1, ITT, mean (SD)): 2.83 (1.72) ng/mL | Peak Level of drug ([2]; 50 mg daily PO, Day 8, ITT, mean (SD)): 6.36 (2.58) ng/mL | Peak Level of drug ([2]; 50 mg daily PO, Day 15, ITT, mean (SD)): 6.22 (3.46) ng/mL | Peak Level of drug ([2]; 100 mg daily PO, Day 1, ITT, mean (SD)): 8.39 (4.04) ng/mL | Peak Level of drug ([2]; 100 mg daily PO, Day 8, ITT, mean (SD)): 15.47 (7.14) ng/mL | Peak Level of drug ([2]; 100 mg daily PO, Day 15, ITT, mean (SD)): 12.76 (5.28) ng/mL | concentration at 8 day ([2]; oral, 10 mg, derived from Table 4 (0.45 ± 0.34, Day 8), read-out: steady state trough level range (mean plus or minus one standard deviation)): 0.11 to 0.79 ng/mL | concentration at 8 day ([2]; 10 mg daily PO, Day 8, ITT, mean (SD), read-out: Mean Trough Level of Drug): 0.45 ng/mL | concentration at 15 day ([2]; 10 mg daily PO, Day 15, ITT, mean (SD), read-out: Mean Trough Level of Drug): 0.49 ng/mL | concentration at 29 day ([2]; 10 mg daily PO, mean (SD), read-out: Mean Trough Level of Drug): 0.34 ng/mL | concentration at 8 day ([2]; 25 mg daily PO, Day 8, ITT, mean (SD), read-out: Mean Trough Level of Drug): 1.33 ng/mL | concentration at 15 day ([2]; 25 mg daily PO, Day 15, ITT, mean (SD), read-out: Mean Trough Level of Drug): 1.49 ng/mL | concentration at 29 day ([2]; 25 mg daily PO, mean (SD), read-out: Mean Trough Level of Drug): 1.18 ng/mL | concentration at 8 day ([2]; 50 mg daily PO, Day 8, ITT, mean (SD), read-out: Mean Trough Level of Drug): 3.11 ng/mL | concentration at 15 day ([2]; 50 mg daily PO, Day 15, ITT, mean (SD), read-out: Mean Trough Level of Drug): 3.39 ng/mL | concentration at 29 day ([2]; 50 mg daily PO, mean (SD), read-out: Mean Trough Level of Drug): 3.23 ng/mL | concentration at 8 day ([2]; 100 mg daily PO, Day 8, ITT, mean (SD), read-out: Mean Trough Level of Drug): 6.91 ng/mL | concentration at 15 day ([2]; 100 mg daily PO, Day 15, ITT, mean (SD), read-out: Mean Trough Level of Drug): 6.66 ng/mL | concentration at 29 day ([2]; 100 mg daily PO, mean (SD), read-out: Mean Trough Level of Drug): 6.03 ng/mL
